Measured values as given in patent publication US20240122930A1, “INTEGRIN INHIBITORS AND USES THEREOF IN COMBINATION WITH OTHER AGENTS” (Pliant Therapeutics, Inc., priority 2022, published 2024).
Read-outs that look alike come from different tables or passages of the source.

System: participants with idiopathic pulmonary fibrosis (IPF)
[1] = 40 mg (n = 22), 12 weeks, listed as Cmpd 5
[2] = 80 mg (n = 23), 12 weeks, listed as Cmpd 5
[3] = 160 mg (n = 22), 12 weeks, listed as Cmpd 5
[4] = 320 mg (n = 22), treatment up to 40 weeks

Source text: The groups were stratified for the use of nintedanib or pirfenidone. The groups were screened 28 days before the Day 1 of the study. At Day 1, baseline values were collected. During week 12, the subjects received the last dose, and the study was ended at week 14. Primary and secondary endpoints of the study included safety, tolerability, and PK. Exploratory endpoints included change in FVC over 12 weeks; High Resolution CT-based Quantitative Lung Fibrosis (QLF) imaging; patient-reported outcome (PRO): VAS-cough severity; and effect on selected biomarkers.
The groups were stratified for the use of nintedanib or pirfenidone. The screening was done 28 days before Day 1 and the baseline was measured on Day 1. The last dose was on Week 12, and the end of study was on Week 14. The primary and secondary endpoints include safety, tolerability, and PK. Exploratory Endpoints include change in Forced Vital Capacity (FVC) over 12 weeks, High Resolution CT-based Quantitative Lung Fibrosis (QLF) imaging, and effect on selected biomarkers.
The groups were stratified for the use of nintedanib or pirfenidone. The groups were screened 28 days before the Day 1 of the study. At Day 1, baseline values were collected. The study was continued up to Week 48. The treatment duration per protocol is at least 24 weeks and at most 48 weeks. For the study, the primary and secondary endpoints evaluated in the trial were safety, tolerability, and pharmacokinetics. The exploratory endpoints evaluated included the change in FVC over 12 and 24 weeks; high Resolution CT-based Quantitative Lung Fibrosis (QLF) imaging; patient-reported cough severity; and effect on selected biomarkers.

COCCN(CCCCc1ccc2c(n1)NCCC2)CC[C@H](Nc1ncnc2ccccc12)C(=O)O [Compound 5, (S)-4-((2-methoxyethyl) (4-(5,6,7,8-tetrahydro-1,8-naphthyridin-2-yl)butyl)amino)-2-(quinazolin-4-ylamino) butanoic acid]
Any AEs, % of participants (40 mg (n = 22), 12 weeks): (72.7) %
Any AEs, participants reporting (40 mg (n = 22), 12 weeks): 16 n
Serious TEAE (40 mg (n = 22), 12 weeks): 1 n
Serious TEAE related to study drug (40 mg (n = 22), 12 weeks): 0 n
Serious TEAE, % of participants (40 mg (n = 22), 12 weeks): (4.5) %
TEAE Diarrhea (any causality), % of participants (40 mg (n = 22), 12 weeks): (9.1) %
TEAE Diarrhea (any causality), participants reporting (40 mg (n = 22), 12 weeks): 2 n
TEAE Diarrhea related to study drug, % of participants (40 mg (n = 22), 12 weeks): (4.5) %
TEAE Diarrhea related to study drug, participants reporting (40 mg (n = 22), 12 weeks): 1 n
TEAE Leading to Death (40 mg (n = 22), 12 weeks): 0 n
TEAE Leading to Early Termination from Study (40 mg (n = 22), 12 weeks): 0 n
TEAE Leading to Interruption of Study Drug (40 mg (n = 22), 12 weeks): 0 n
TEAE Leading to Withdrawal of Study Drug (40 mg (n = 22), 12 weeks): 0 n
TEAE of CTCAE Grade 3 or Higher (40 mg (n = 22), 12 weeks): 2 n
TEAE of CTCAE Grade 3 or Higher related to study drug (40 mg (n = 22), 12 weeks): 0 n
TEAE of CTCAE Grade 3 or Higher, % of participants (40 mg (n = 22), 12 weeks): (9.1) %
TEAE related to study drug (40 mg (n = 22), 12 weeks): 4 n
TEAE related to study drug, % of participants (40 mg (n = 22), 12 weeks): (18.2) %
TEAE, % of participants (40 mg (n = 22), 12 weeks): (72.7) %
TEAE, participants reporting (40 mg (n = 22), 12 weeks): 16 n
Any AEs, % of participants [1]: 72.7%
Serious TEAE, % of participants [1]: 4.5%
TEAE Diarrhea (any causality), % of participants [1]: 9.1%
TEAE Diarrhea related to study drug, % of participants [1]: 4.5%
TEAE of CTCAE Grade 3 or Higher, % of participants [1]: 9.1%
TEAE related to study drug, % of participants [1]: 18.2%
TEAE, % of participants [1]: 72.7%
Any AEs, % of participants (80 mg (n = 23), 12 weeks): (65.2) %
Any AEs, participants reporting (80 mg (n = 23), 12 weeks): 15 n
Serious TEAE (80 mg (n = 23), 12 weeks): 0 n
Serious TEAE related to study drug (80 mg (n = 23), 12 weeks): 0 n
TEAE Diarrhea (any causality), % of participants (80 mg (n = 23), 12 weeks): (21.7) %
TEAE Diarrhea (any causality), participants reporting (80 mg (n = 23), 12 weeks): 5 n
TEAE Diarrhea related to study drug, % of participants (80 mg (n = 23), 12 weeks): (13.0) %
TEAE Diarrhea related to study drug, participants reporting (80 mg (n = 23), 12 weeks): 3 n
TEAE Leading to Death (80 mg (n = 23), 12 weeks): 0 n
TEAE Leading to Early Termination from Study (80 mg (n = 23), 12 weeks): 0 n
TEAE Leading to Interruption of Study Drug (80 mg (n = 23), 12 weeks): 0 n
TEAE Leading to Withdrawal of Study Drug (80 mg (n = 23), 12 weeks): 0 n
TEAE of CTCAE Grade 3 or Higher (80 mg (n = 23), 12 weeks): 0 n
TEAE of CTCAE Grade 3 or Higher related to study drug (80 mg (n = 23), 12 weeks): 0 n
TEAE related to study drug (80 mg (n = 23), 12 weeks): 7 n
TEAE related to study drug, % of participants (80 mg (n = 23), 12 weeks): (30.4) %
TEAE, % of participants (80 mg (n = 23), 12 weeks): (65.2) %
TEAE, participants reporting (80 mg (n = 23), 12 weeks): 15 n
Any AEs, % of participants [2]: 65.2%
TEAE Diarrhea (any causality), % of participants [2]: 21.7%
TEAE Diarrhea related to study drug, % of participants [2]: 13.0%
TEAE related to study drug, % of participants [2]: 30.4%
TEAE, % of participants [2]: 65.2%
Any AEs, % of participants (160 mg (n = 22), 12 weeks): (68.1) %
Any AEs, participants reporting (160 mg (n = 22), 12 weeks): 15 n
Serious TEAE (160 mg (n = 22), 12 weeks): 2 n
Serious TEAE related to study drug (160 mg (n = 22), 12 weeks): 0 n
Serious TEAE, % of participants (160 mg (n = 22), 12 weeks): (9.1) %
TEAE Diarrhea (any causality), % of participants (160 mg (n = 22), 12 weeks): (22.7) %
TEAE Diarrhea (any causality), participants reporting (160 mg (n = 22), 12 weeks): 5 n
TEAE Diarrhea related to study drug, % of participants (160 mg (n = 22), 12 weeks): (18.2) %
TEAE Diarrhea related to study drug, participants reporting (160 mg (n = 22), 12 weeks): 4 n
TEAE Leading to Death (160 mg (n = 22), 12 weeks): 0 n
TEAE Leading to Early Termination from Study (160 mg (n = 22), 12 weeks): 0 n
TEAE Leading to Interruption of Study Drug (160 mg (n = 22), 12 weeks): 1 n
TEAE Leading to Interruption of Study Drug, % of participants (160 mg (n = 22), 12 weeks): (4.5) %
TEAE Leading to Withdrawal of Study Drug (160 mg (n = 22), 12 weeks): 0 n
TEAE of CTCAE Grade 3 or Higher (160 mg (n = 22), 12 weeks): 2 n
TEAE of CTCAE Grade 3 or Higher related to study drug (160 mg (n = 22), 12 weeks): 1 n
TEAE of CTCAE Grade 3 or Higher related to study drug, % of participants (160 mg (n = 22), 12 weeks): (4.5) %
TEAE of CTCAE Grade 3 or Higher, % of participants (160 mg (n = 22), 12 weeks): (9.1) %
TEAE related to study drug (160 mg (n = 22), 12 weeks): 4 n
TEAE related to study drug, % of participants (160 mg (n = 22), 12 weeks): (18.2) %
TEAE, % of participants (160 mg (n = 22), 12 weeks): (63.6) %
TEAE, participants reporting (160 mg (n = 22), 12 weeks): 14 n
Any AEs, % of participants [3]: 68.2%
Serious TEAE, % of participants [3]: 9.1%
TEAE Diarrhea (any causality), % of participants [3]: 22.7%
TEAE Diarrhea related to study drug, % of participants [3]: 18.2%
TEAE Leading to Interruption of Study Drug, % of participants [3]: 4.5%
TEAE of CTCAE Grade 3 or Higher related to study drug, % of participants [3]: 4.5%
TEAE of CTCAE Grade 3 or Higher, % of participants [3]: 9.1%
TEAE related to study drug, % of participants [3]: 18.2%
TEAE, % of participants [3]: 63.6%
Any AEs, % of participants (320 mg (n = 21), 12 weeks): 85.7%
Any AEs, participants reporting (320 mg (n = 21), 12 weeks): 18 n
Serious TEAE (320 mg (n = 21), 12 weeks): 1 n
Serious TEAE related to study drug (320 mg (n = 21), 12 weeks): 0 n
Serious TEAE, % of participants (320 mg (n = 21), 12 weeks): 4.8%
TEAE Diarrhea (any causality), % of participants (320 mg (n = 21), 12 weeks): 14.3%
TEAE Diarrhea (any causality), participants reporting (320 mg (n = 21), 12 weeks): 3 n
TEAE Diarrhea related to study drug, % of participants (320 mg (n = 21), 12 weeks): 9.5%
TEAE Diarrhea related to study drug, participants reporting (320 mg (n = 21), 12 weeks): 2 n
TEAE Leading to Death (320 mg (n = 21), 12 weeks): 1 n
TEAE Leading to Death, % of participants (320 mg (n = 21), 12 weeks): 4.8%
TEAE Leading to Early Termination from Study (320 mg (n = 21), 12 weeks): 3 n
TEAE Leading to Early Termination from Study, % of participants (320 mg (n = 21), 12 weeks): 14.3%
TEAE Leading to Interruption of Study Drug (320 mg (n = 21), 12 weeks): 1 n
TEAE Leading to Interruption of Study Drug, % of participants (320 mg (n = 21), 12 weeks): 4.8%
TEAE Leading to Withdrawal of Study Drug (320 mg (n = 21), 12 weeks): 3 n
TEAE Leading to Withdrawal of Study Drug, % of participants (320 mg (n = 21), 12 weeks): 14.3%
TEAE of CTCAE Grade 3 or Higher (320 mg (n = 21), 12 weeks): 2 n
TEAE of CTCAE Grade 3 or Higher related to study drug (320 mg (n = 21), 12 weeks): 0 n
TEAE of CTCAE Grade 3 or Higher, % of participants (320 mg (n = 21), 12 weeks): 9.5%
TEAE related to study drug (320 mg (n = 21), 12 weeks): 4 n
TEAE related to study drug, % of participants (320 mg (n = 21), 12 weeks): 19.0%
TEAE, % of participants (320 mg (n = 21), 12 weeks): 81.0%
TEAE, participants reporting (320 mg (n = 21), 12 weeks): 17 n
Serious TEAE [4]: 2 n
Serious TEAE related to study drug [4]: 0 n
Serious TEAE, % of participants [4]: (9.1) %
TEAE Cough related to study drug [4]: 0 n
TEAE Cough, % of participants [4]: (13.6) %
TEAE Cough, participants reporting [4]: 3 n
TEAE Diarrhea related to study drug [4]: 4 n
TEAE Diarrhea related to study drug, % of participants [4]: (18.2) %
TEAE Diarrhea, % of participants [4]: (31.8) %
TEAE Diarrhea, participants reporting [4]: 7 n
TEAE Dyspnoea related to study drug [4]: 0 n
TEAE Dyspnoea, % of participants [4]: (22.7) %
